Measurements published in ChEMBL document CHEMBL1122959, “3-Hydroxy-3-methylglutaryl-coenzyme A reductase inhibitors. 1. Structural modification of 5-substituted 3,5-dihydroxypentanoic acids and their lactone derivatives” (J Med Chem, 1985).

What was measured:
[1] = molecular target: T1, 3-hydroxy-3-methylglutaryl-coenzyme A reductase (Rattus norvegicus) (UniProt P51639); assay: Inhibitory activity against partially purified rat liver HMG CoA reductase at 4 ug/ml concentration
T1 sequence (whole entry): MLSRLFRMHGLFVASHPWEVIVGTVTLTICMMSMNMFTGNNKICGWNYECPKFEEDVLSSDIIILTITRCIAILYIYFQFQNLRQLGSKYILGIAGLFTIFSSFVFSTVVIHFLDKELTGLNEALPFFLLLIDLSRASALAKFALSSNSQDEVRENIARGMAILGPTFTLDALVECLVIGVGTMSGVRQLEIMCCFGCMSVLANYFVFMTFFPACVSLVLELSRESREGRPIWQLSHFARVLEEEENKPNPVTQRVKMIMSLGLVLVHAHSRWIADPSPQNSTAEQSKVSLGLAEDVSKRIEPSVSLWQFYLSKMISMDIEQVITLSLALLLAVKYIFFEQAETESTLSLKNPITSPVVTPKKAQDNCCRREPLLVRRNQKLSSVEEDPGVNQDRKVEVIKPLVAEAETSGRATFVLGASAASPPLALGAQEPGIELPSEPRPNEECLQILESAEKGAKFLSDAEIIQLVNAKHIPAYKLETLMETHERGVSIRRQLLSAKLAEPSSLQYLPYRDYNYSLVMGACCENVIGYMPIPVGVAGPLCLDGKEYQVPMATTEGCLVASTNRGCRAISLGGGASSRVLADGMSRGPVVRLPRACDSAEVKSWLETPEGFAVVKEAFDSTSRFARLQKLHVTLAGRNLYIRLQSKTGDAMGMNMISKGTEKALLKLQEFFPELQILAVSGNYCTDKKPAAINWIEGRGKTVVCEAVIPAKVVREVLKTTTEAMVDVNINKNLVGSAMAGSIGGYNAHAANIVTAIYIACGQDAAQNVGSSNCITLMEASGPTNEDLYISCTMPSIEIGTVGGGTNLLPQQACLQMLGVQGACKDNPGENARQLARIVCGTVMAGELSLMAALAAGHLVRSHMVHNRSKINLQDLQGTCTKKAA

[2] = molecular target: T1, 3-hydroxy-3-methylglutaryl-coenzyme A reductase (Rattus norvegicus); assay: Relative potency against HMG CoA reductase
[3] = molecular target: T1, 3-hydroxy-3-methylglutaryl-coenzyme A reductase (Rattus norvegicus); assay: Inhibitory activity against partially purified rat liver HMG CoA reductase at 1 ug/ml concentration
[4] = molecular target: T1, 3-hydroxy-3-methylglutaryl-coenzyme A reductase (Rattus norvegicus); assay: Inhibitory activity against partially purified rat liver HMG CoA reductase at 8 ug/ml concentration
[5] = molecular target: T2, 3-hydroxy-3-methylglutaryl-coenzyme A reductase (Rattus norvegicus, UniProt P51639); assay: In vitro inhibitory activity against HMG CoA reductase
T2 sequence (P51639 whole entry): T1 sequence (whole entry)

[6] = molecular target: T1, 3-hydroxy-3-methylglutaryl-coenzyme A reductase (Rattus norvegicus); assay: Inhibitory activity against partially purified rat liver HMG CoA reductase at 2 ug/ml concentration
[7] = molecular target: T1, 3-hydroxy-3-methylglutaryl-coenzyme A reductase (Rattus norvegicus); assay: Inhibitory activity against partially purified rat liver HMG CoA reductase at 20 ug/ml concentration
[8] = molecular target: T1, 3-hydroxy-3-methylglutaryl-coenzyme A reductase (Rattus norvegicus); assay: Inhibition of partially purified rat liver HMG CoA reductase at 10 ug/ml concentration
[9] = molecular target: T1, 3-hydroxy-3-methylglutaryl-coenzyme A reductase (Rattus norvegicus); assay: Inhibitory activity against partially purified rat liver HMG CoA reductase at 50 ug/ml concentration
[10] = molecular target: T1, 3-hydroxy-3-methylglutaryl-coenzyme A reductase (Rattus norvegicus); assay: Inhibitory activity against partially purified rat liver HMG CoA reductase at 5 ug/ml concentration
[11] = molecular target: T1, 3-hydroxy-3-methylglutaryl-coenzyme A reductase (Rattus norvegicus); assay: Inhibitory activity against partially purified rat liver HMG CoA reductase at 3.125 ug/ml concentration
[12] = molecular target: T1, 3-hydroxy-3-methylglutaryl-coenzyme A reductase (Rattus norvegicus); assay: Inhibitory activity against partially purified rat liver HMG CoA reductase at 0.625 ug/ml concentration
[13] = molecular target: T1, 3-hydroxy-3-methylglutaryl-coenzyme A reductase (Rattus norvegicus); assay: Inhibitory activity against partially purified rat liver HMG CoA reductase at 25 ug/ml concentration
[14] = molecular target: T1, 3-hydroxy-3-methylglutaryl-coenzyme A reductase (Rattus norvegicus); assay: Inhibitory activity against partially purified rat liver HMG CoA reductase at 1 ug/mL concentration
[15] = molecular target: T1, 3-hydroxy-3-methylglutaryl-coenzyme A reductase (Rattus norvegicus); assay: Inhibitory activity against partially purified rat liver HMG CoA reductase at 12.5 ug/ml concentration
[16] = molecular target: T1, 3-hydroxy-3-methylglutaryl-coenzyme A reductase (Rattus norvegicus); assay: Inhibitory activity against partially purified rat liver HMG CoA reductase at 4 ug/mL concentration
[17] = molecular target: T1, 3-hydroxy-3-methylglutaryl-coenzyme A reductase (Rattus norvegicus); assay: Inhibitory activity against partially purified rat liver HMG CoA reductase at 0.2 ug/ml concentration
[18] = molecular target: T1, 3-hydroxy-3-methylglutaryl-coenzyme A reductase (Rattus norvegicus); assay: Inhibitory activity against partially purified rat liver HMG CoA reductase at 0.1 ug/ml concentration
[19] = molecular target: T1, 3-hydroxy-3-methylglutaryl-coenzyme A reductase (Rattus norvegicus); assay: Inhibitory activity against partially purified rat liver HMG CoA reductase at 0.4 ug/ml concentration
[20] = molecular target: T1, 3-hydroxy-3-methylglutaryl-coenzyme A reductase (Rattus norvegicus); conditions: 1.4 ug/ml
Description: Inhibitory activity against partially purified rat liver HMG CoA reductase at 1.4 ug/ml concentration

[21] = molecular target: T1, 3-hydroxy-3-methylglutaryl-coenzyme A reductase (Rattus norvegicus); assay: Inhibitory activity against partially purified rat liver HMG CoA reductase at 0.8 ug/ml concentration
[22] = molecular target: T1, 3-hydroxy-3-methylglutaryl-coenzyme A reductase (Rattus norvegicus); assay: Inhibitory activity against partially purified rat liver HMG CoA reductase at 6 ug/ml concentration
[23] = molecular target: T1, 3-hydroxy-3-methylglutaryl-coenzyme A reductase (Rattus norvegicus); assay: Inhibitory activity against partially purified rat liver HMG CoA reductase at 0.35 ug/ml concentration
[24] = molecular target: T1, 3-hydroxy-3-methylglutaryl-coenzyme A reductase (Rattus norvegicus); assay: Inhibitory activity against partially purified rat liver HMG CoA reductase at 1.0 ug/ml concentration
[25] = molecular target: T1, 3-hydroxy-3-methylglutaryl-coenzyme A reductase (Rattus norvegicus); assay: Inhibitory activity against partially purified rat liver HMG CoA reductase at 0.75 ug/ml concentration

C[C@]1(O)CC(=O)O[C@H](CCc2ccc(Cl)cc2Cl)C1
inhibition [1]: 37% | Relative potency [2]: 0.08 | inhibition [3]: 14% | inhibition [4]: 63% | IC50 [5]: 19.8 µM | inhibition [6]: 26%

O=C1C[C@H](O)C[C@@H](CC[C@@H]2CCC[C@@H]3CCCC[C@@H]32)O1
inhibition [7]: 44% | inhibition [8]: 22% | inhibition [9]: 70% | IC50 [5]: 107 µM | inhibition [10]: 15%

O=C1C[C@H](O)C[C@@H](C2CCCCC2)O1
inhibition [7]: 6% | inhibition [8]: 0% | inhibition [9]: 36% | inhibition [10]: 1%

O=C1C[C@H](O)C[C@@H](C#Cc2ccc(Cl)cc2Cl)O1
inhibition [11]: 8% | inhibition [12]: 0%

CC[C@H](C)C(=O)O[C@H]1CCC=C2C=C[C@H](C)[C@H](CC[C@@H]3C[C@@H](O)CC(=O)O3)[C@H]21 [MEVASTATIN]
Relative potency [2]: 100 | IC50 [5]: 0.01 µM

O=C1C[C@H](O)CC(CCCc2cccc3ccccc23)O1 (stereo partly specified)
inhibition [13]: 35% | inhibition [8]: 25% | inhibition [10]: 7% | inhibition [6]: 11%

O=C1C[C@@H](O)C[C@H](/C=C\c2ccc(Cl)cc2Cl)O1
inhibition [11]: 0% | inhibition [12]: 0%

O=C1C[C@H](O)CC(c2ccc(Cl)cc2Cl)O1 (stereo partly specified)
inhibition [7]: 27% | inhibition [8]: 26% | inhibition [9]: 23% | inhibition [10]: 4%

C[C@]1(O)CC(=O)O[C@H](/C=C/c2ccc(Cl)cc2Cl)C1
inhibition [1]: 36% | Relative potency [2]: 0.09 | inhibition [3]: 11% | inhibition [8]: 61% | IC50 [5]: 20 µM | inhibition [6]: 21%

CC1=CC(=O)OC(/C=C/c2ccc(Cl)cc2Cl)C1 (stereo unspecified)
inhibition [13]: 5% | inhibition [1]: 3% | inhibition [8]: 3% | inhibition [6]: 0%

COC(/C=C/c1ccc(Cl)cc1Cl)CC(O)CC(=O)O (stereo unspecified)
inhibition [8]: 0% | inhibition [10]: 0% | inhibition [6]: 0% | inhibition [14]: 0%

O=C1C[C@H](O)CC(CCC23CC4CC(CC(C4)C2)C3)O1 (stereo partly specified)
inhibition [3]: 18% | inhibition [10]: 16% | inhibition [15]: 28%

NC(=O)C[C@H](O)C[C@H](O)/C=C/c1ccc(Cl)cc1Cl
inhibition [3]: 0% | inhibition [4]: 0% | inhibition [6]: 0% | inhibition [16]: 0%

O=C1C[C@H](O)C[C@@H](/C=C/c2ccccc2)O1
inhibition [7]: 14% | inhibition [8]: 15% | inhibition [9]: 31% | inhibition [10]: 3%

O=C1C[C@H](O)CC(CCc2cccc3ccccc23)O1 (stereo partly specified)
inhibition [7]: 45% | inhibition [8]: 29% | inhibition [9]: 61% | IC50 [5]: 129 µM | inhibition [10]: 19%

O=C1C[C@H](O)C[C@@H](/C=C/c2ccc(Cl)cc2Cl)O1 (racemic) [listing 1 of 2 here]
inhibition [7]: 84% | Relative potency [2]: 0.08 | inhibition [3]: 13% | inhibition [8]: 64% | inhibition [10]: 41%

O=C1C[C@H](O)CC(CC[C@@H]2CC[C@H]3CCCC[C@@H]3C2)O1 (stereo partly specified)
inhibition [3]: 1% | IC50 [5]: 90 µM | inhibition [10]: 13% | inhibition [15]: 28%

O=C1C[C@H](O)C[C@@H](C=C2c3ccccc3C=Cc3ccccc32)O1
inhibition [17]: 34% | Relative potency [2]: 0.9 | IC50 [5]: 1.6 µM | inhibition [18]: 20% | inhibition [19]: 42%

CO[C@@H]1C[C@H](O)C[C@@H](/C=C/c2ccc(Cl)cc2Cl)O1
inhibition [1]: 0% | inhibition [8]: 0% | inhibition [4]: 6% | inhibition [6]: 0%

C[C@@]1(O)CC(=O)O[C@H](/C=C/c2ccc(Cl)cc2Cl)C1
inhibition [13]: 15% | inhibition [1]: 7% | inhibition [8]: 5% | inhibition [6]: 3%

O=C1C[C@H](O)C[C@@H](/C=C/c2ccc(Cl)cc2Cl)O1 (racemic) [listing 2 of 2 here]
IC50 [5]: 22 µM

O=C1C[C@H](O)CC(c2cccc3ccccc23)O1 (stereo partly specified)
inhibition [7]: 7% | inhibition [8]: 9% | inhibition [9]: 18% | inhibition [10]: 16%

O=C1C[C@H](O)C[C@@H](C=C2c3ccccc3-c3ccccc32)O1
inhibition [17]: 48% | inhibition [20]: 61% | Relative potency [2]: 1.5 | IC50 [5]: 0.89 µM | inhibition [18]: 25% | inhibition [21]: 81%

O=C1C[C@H](O)C[C@@H](/C=C/c2ccc(Cl)cc2Cl)O1 (stereo in doubt; 6a(+)) [listing 1 of 2 here]
inhibition [7]: 86% | Relative potency [2]: 0.16 | inhibition [3]: 26% | inhibition [8]: 72% | inhibition [10]: 66% | inhibition [6]: 45%

O=C1C[C@H](O)CC(C=C(c2ccccc2)c2ccccc2)O1 (stereo partly specified)
inhibition [17]: 36% | inhibition [18]: 22% | inhibition [21]: 20% | inhibition [19]: 14%

O=C1C[C@H](O)C[C@@H](/C=C/c2ccc(Cl)cc2Cl)O1 (stereo in doubt; 6a(-))
inhibition [1]: 0% | inhibition [3]: 0% | inhibition [4]: 0% | inhibition [6]: 0%

O=C1C=C(O)OC(/C=C/c2ccc(Cl)cc2Cl)C1 (stereo unspecified)
inhibition [8]: 12% | inhibition [9]: 15% | inhibition [6]: 0%

O=C1C[C@H](O)C[C@@H](/C=C/c2ccc(Cl)cc2Cl)O1 (stereo in doubt; 6a(+)) [listing 2 of 2 here]
IC50 [5]: 10.8 µM

CO[C@H]1C[C@H](O)C[C@@H](/C=C/c2ccc(Cl)cc2Cl)O1
inhibition [1]: 2% | inhibition [22]: 4% | inhibition [6]: 0%

O=C1C[C@H](O)C[C@@H](/C=C/c2cccc3ccc4ccccc4c23)O1
inhibition [23]: 39% | inhibition [24]: 64% | Relative potency [2]: 1.1 | inhibition [25]: 58% | IC50 [5]: 1.9 µM

O=C1C[C@H](O)C[C@@H](COc2ccc(Cl)cc2Cl)O1
inhibition [1]: 18% | inhibition [3]: 21% | inhibition [8]: 21% | inhibition [6]: 24%

O=C1C[C@H](O)C[C@@H](CCc2ccc(Cl)cc2Cl)O1
inhibition [3]: 29% | inhibition [8]: 80% | IC50 [5]: 15.2 µM | inhibition [10]: 57% | inhibition [6]: 38%

O=C1C[C@H](O)CC(CCC2CCCCC2)O1 (stereo partly specified)
inhibition [7]: 17% | inhibition [8]: 6% | inhibition [9]: 34% | inhibition [10]: 23%

O=C1C[C@@H](O)C[C@@H](/C=C/c2ccc(Cl)cc2Cl)O1 (racemic)
inhibition [7]: 17% | inhibition [8]: 27% | inhibition [9]: 18% | inhibition [10]: 6% | inhibition [6]: 4%
